Measurements published in patent US8435978B2, “Substituted sulfonamide compounds” (Gruenenthal GmbH, priority 2006, dated 2013).

How the values were obtained:
human B1R receptor = biological target: T1, human B1R receptor (Homo sapiens, UniProt P46663); test: Functional study on the bradykinin receptor 1 (B1R), FLIPR Ca2+ assay, hB1R cells; assay type: cell-based; details: agonist Lys-Des-Arg9-bradykinin 0.5 nM, % inhibition compared with the maximum achievable inhibition; for inhibition at 10 µM: CHO-K1, test substance 10 μM, read-out: B1R Antagonism, human [10 μM] % Inhibition
T1 construct: host or cells: CHO K1 cells (Chinese hamster ovary), stably transfected
T1 sequence (P46663 1-353): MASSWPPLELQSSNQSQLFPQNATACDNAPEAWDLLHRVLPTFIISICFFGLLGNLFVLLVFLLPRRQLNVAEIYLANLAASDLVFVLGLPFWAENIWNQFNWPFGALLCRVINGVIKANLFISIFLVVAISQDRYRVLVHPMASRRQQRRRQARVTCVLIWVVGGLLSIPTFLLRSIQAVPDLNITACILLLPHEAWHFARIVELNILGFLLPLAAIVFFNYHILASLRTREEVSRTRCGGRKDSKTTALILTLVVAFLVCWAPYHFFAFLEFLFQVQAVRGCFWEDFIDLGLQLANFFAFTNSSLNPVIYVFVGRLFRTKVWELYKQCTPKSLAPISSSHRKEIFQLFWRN
Outline: (§1)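 Readout: peak Fluo-4 Ca2+ fluorescence, FLIPR. Stable CHO K1 hB1R or rB1R cells; cpd 10 μM, 10 min preincubation, then agonist (hB1R: Lys-Des-Arg9-BK 0.5 nM; rB1R: Des-Arg9-BK 100 nM). Value = % inhibition relative to maximal achievable inhibition.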

B1R receptor of the rat = biological target: T2, B1R receptor of the rat (Rattus norvegicus, UniProt P97583); test: Functional study on the bradykinin receptor 1 (B1R), FLIPR Ca2+ assay, rB1R cells; assay type: cell-based; details: agonist Des-Arg9-bradykinin 100 nM, % inhibition compared with the maximum achievable inhibition; for inhibition at 10 µM: CHO-K1, test substance 10 μM, read-out: B1R Antagonism, rat [10 μM] % Inhibition
T2 construct: host or cells: CHO K1 cells (Chinese hamster ovary), stably transfected
T2 sequence (P97583 1-337): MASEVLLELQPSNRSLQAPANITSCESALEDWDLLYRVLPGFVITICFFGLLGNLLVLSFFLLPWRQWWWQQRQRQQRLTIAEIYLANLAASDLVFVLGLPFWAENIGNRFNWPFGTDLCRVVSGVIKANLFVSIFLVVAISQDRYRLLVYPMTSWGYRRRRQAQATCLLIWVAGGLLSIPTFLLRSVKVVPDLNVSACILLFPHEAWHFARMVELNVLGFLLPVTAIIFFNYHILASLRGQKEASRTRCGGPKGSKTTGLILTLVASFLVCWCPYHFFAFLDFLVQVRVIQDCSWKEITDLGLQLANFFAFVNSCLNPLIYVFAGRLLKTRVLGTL
Outline: as §1

SMILES	inhibition at 10 µM (human B1R receptor) [%]	inhibition at 10 µM (B1R receptor of the rat) [%]	B1R Antagonism, human [10 μM] % Inhibition (human B1R receptor; test substance 10 μM, hB1R CHO K1 cells) [%]	B1R Antagonism, rat [10 μM] % Inhibition (B1R receptor of the rat; test substance 10 μM, rB1R CHO K1 cells) [%]
Cc1cc(S(=O)(=O)N2CCCCC2COCC(=O)N2CCN(C3CCN(C)CC3)CC2)c(C)s1 (stereo not shown) [Example 172, 2-((1-(2,5-dimethylthiophen-3-ylsulfonyl)piperidin-2-yl)methoxy)-1-(4-(1-methylpiperidin-4-yl)piperazin-1-yl)ethanone]	101	85.2	–	–
COc1cc(C)c(S(=O)(=O)N2CCCCC2COCC(=O)Nc2ccccc2N2CCN(C)CC2)c(C)c1 (stereo not shown) [Example 431, 2-((1-(4-methoxy-2,6-dimethylphenylsulfonyl)piperidin-2-yl)methoxy)-N-(2-(4-methylpiperazin-1-yl)phenyl)acetamide]	28.4	96.2	–	–
COc1cc(C)c(S(=O)(=O)N2Cc3ccccc3CC2COCC(=O)N2CCC(N3CCN(C)CC3)CC2)c(C)c1C (stereo not shown) [Example 275, 2-((2-(4-methoxy-2,3,6-trimethylphenylsulfonyl)-1,2,3,4-tetrahydroisoquinolin-3-yl)methoxy)-1-(4-(4-methylpiperazin-1-yl)piperidin-1-yl)ethanone]	102	93.1	–	–
CN1CCN(c2ccc(CNC(=O)COCC3CCCCN3S(=O)(=O)c3c(Cl)cc(Cl)cc3Cl)cc2)CC1 (stereo not shown) [Example 13, N-[4-(4-methyl-piperazin-1-yl)-benzyl]-2-[1-(2,4,6-trichloro-phenylsulfonyl)-piperidin-2-ylmethoxy]-acetamide]	97.7	113	–	–
COc1cc(C)c(S(=O)(=O)N2CCCCC2COCC(=O)N2CCN(c3ccc(C(F)(F)F)cn3)CC2)c(C)c1 (stereo not shown) [Example 514, 2-((1-(4-methoxy-2,6-dimethylphenylsulfonyl)piperidin-2-yl)methoxy)-1-(4-(5-(trifluoromethyl)pyridin-2-yl)piperazin-1-yl)ethanone]	85.2	99	–	–
COc1cc(C)c(S(=O)(=O)N2CCCCC2COCC(=O)N2CCCCC2CCN2CCOCC2)c(C)c1 (stereo not shown) [Example 534, 2-((1-(4-methoxy-2,6-dimethylphenylsulfonyl)piperidin-2-yl)methoxy)-1-(2-(2-morpholinoethyl)piperidin-1-yl)ethanone]	104	107	–	–
CN1CCN(C2CCN(C(=O)COCC3CCCN3S(=O)(=O)c3c(Cl)cccc3Cl)CC2)CC1 (stereo not shown) [Example 285, 2-((1-(2,6-dichlorophenylsulfonyl)pyrrolidin-2-yl)methoxy)-1-(4-(4-methylpiperazin-1-yl)piperidin-1-yl)ethanone]	104	91	–	–
COc1cccc(N2CCN(C(=O)COCC3CCCCN3S(=O)(=O)c3c(C)cc(OC)cc3C)CC2)c1 (stereo not shown) [Example 288, 2-((1-(4-methoxy-2,6-dimethylphenylsulfonyl)piperidin-2-yl)methoxy)-1-(4-(3-methoxyphenyl)piperazin-1-yl)ethanone]	102	93.3	–	–
O=C(COCC1CCCCN1S(=O)(=O)c1c(Cl)cccc1Cl)NCc1ccc(CN2CCOCC2)cc1 (stereo not shown) [Example 549, 2-((1-(2,6-dichlorophenylsulfonyl)piperidin-2-yl)methoxy)-N-(4-(morpholinomethyl)benzyl)acetamide]	75.8	99	–	–
COc1cc(C)c(S(=O)(=O)N2CCCCC2COCC(=O)N(C)C(CN2CCOCC2)c2ccccc2)c(C)c1 (stereo not shown) [Example 368, 2-((1-(4-methoxy-2,6-dimethylphenylsulfonyl)piperidin-2-yl)methoxy)-N-methyl-N-(2-morpholino-1-phenylethyl)acetamide]	62.1	101	–	–
O=C(COCC1CCCCN1S(=O)(=O)c1c(Cl)cccc1Cl)N1CCN(Cc2ccc(Br)cc2)CC1 (stereo not shown) [Example 406, 1-(4-(4-bromobenzyl)piperazin-1-yl)-2-((1-(2,6-dichlorophenylsulfonyl)piperidin-2-yl)methoxy)ethanone]	103	100	–	–
COc1cc(C)c(S(=O)(=O)N2CCCC2COCC(=O)N2CCN(c3cc(Cl)ccc3C)CC2)c(C)c1 (stereo not shown) [Example 311, 1-(4-(5-chloro-2-methylphenyl)piperazin-1-yl)-2-((1-(4-methoxy-2,6-dimethylphenylsulfonyl)pyrrolidin-2-yl)methoxy)ethanone]	94.9	103	–	–
CN1CCC(N2CCN(C(=O)COC[C@@H]3Cc4ccccc4CN3S(=O)(=O)c3ccc(Cl)cc3Cl)CC2)CC1 [Example 133, (S)-2-((2-(2,4-dichlorophenylsulfonyl)-1,2,3,4-tetrahydroisoquinolin-3-yl)methoxy)-1-(4-(1-methylpiperidin-4-yl)piperazin-1-yl)ethanone]	103	98.1	–	–
COc1cc(C)c(S(=O)(=O)N2CCCCC2COCC(=O)N2CCN(c3ccncc3)CC2)c(C)c1 (stereo not shown) [Example 147, 2-((1-(4-methoxy-2,6-dimethylphenylsulfonyl)piperidin-2-yl)methoxy)-1-(4-(pyridin-4-yl)piperazin-1-yl)ethanone]	100	100	–	–
O=C(COCC1CCCCN1S(=O)(=O)c1cccc2ccccc12)NCC1CCCN(Cc2ccccc2)C1 (stereo not shown) [Example 34, N-(1-benzyl-piperidin-3-ylmethyl)-2-[1-(naphthyl-1-sulfonyl)-piperidin-2-ylmethoxy]-acetamide]	–	–	79.9	39.48
COc1cc(C)c(S(=O)(=O)N2CCCC2COCC(=O)Nc2ccc(CCc3nc4ccccc4n3C)cc2)c(C)c1 (stereo not shown) [Example 470, 2-((1-(4-methoxy-2,6-dimethylphenylsulfonyl)pyrrolidin-2-yl)methoxy)-N-(4-(2-(1-methyl-1H-benzo[d]imidazol-2-yl)ethyl)phenyl)acetamide]	92.7	98.1	–	–
COc1ccc(S(=O)(=O)N2CCCCC2COCC(=O)N2CCN(Cc3cccc(C)c3)CC2)cc1 (stereo not shown) [Example 219, 2-((1-(4-methoxyphenylsulfonyl)piperidin-2-yl)methoxy)-1-(4-(3-methylbenzyl)piperazin-1-yl)ethanone]	5.04	96.2	–	–
COc1ccc(S(=O)(=O)N2CCCCC2COCC(=O)Nc2ccc(N3CCOCC3)c3nonc23)cc1 (stereo not shown) [Example 556, 2-((1-(4-methoxyphenylsulfonyl)piperidin-2-yl)methoxy)-N-(7-morpholinobenzo[c][1,2,5]oxadiazol-4-yl)acetamide]	12.1	85.6	–	–
COc1cc(C)c(S(=O)(=O)N2CCCCC2COCC(=O)N2CCC(C(=O)N3CCN(C)CC3)CC2)c(C)c1 (stereo not shown) [Example 146, 2-((1-(4-methoxy-2,6-dimethylphenylsulfonyl)piperidin-2-yl)methoxy)-1-(4-(4-methylpiperazin-1-carbonyl)piperidin-1-yl)ethanone]	97.3	99.6	–	–
COc1cc(C)c(S(=O)(=O)N2CCCC2COCC(=O)N2CCCN(c3ncccc3C#N)CC2)c(C)c1 (stereo not shown) [Example 531, 2-(4-(2-((1-(4-methoxy-2,6-dimethylphenylsulfonyl)pyrrolidin-2-yl)methoxy)acetyl)-1,4-diazepan-1-yl)nicotinonitrile]	92.6	96.2	–	–
O=C(COCC1CCCCN1S(=O)(=O)c1ccc(Cl)c(Cl)c1)N1CCOC(CN2CCCCC2)C1 (stereo not shown) [Example 266, 2-((1-(3,4-dichlorophenylsulfonyl)piperidin-2-yl)methoxy)-1-(2-(piperidin-1-ylmethyl)morpholino)ethanone]	102	2.12	–	–
COc1cc(C)c(S(=O)(=O)N2CCCC2COCC(=O)NCC2CCCN(Cc3ccccc3)C2)c(C)c1 (stereo not shown) [Example 300, N-((1-benzylpiperidin-3-yl)methyl)-2-((1-(4-methoxy-2,6-dimethylphenylsulfonyl)pyrrolidin-2-yl)methoxy)acetamide]	106	103	–	–
COc1cc(C)c(S(=O)(=O)N2CCCCC2COCC(=O)NCc2cccc(N3CCCCC3)c2)c(C)c1 (stereo not shown) [Example 430, 2-((1-(4-methoxy-2,6-dimethylphenylsulfonyl)piperidin-2-yl)methoxy)-N-(3-(piperidin-1-yl)benzyl)acetamide]	38.6	101	–	–
